In the NIST ThermoML archive (doi:10.1021/je049738c):

Key:
[1] = 298.15 K; 101.33 kPa; Liquid
[2] = molar heat capacity at constant pressure; details: 298.15 K; 101.33 kPa; Liquid; Flow calorimetry
[3] = xn = mol fraction of the nth substance listed; details: 298.15 K, 101.3 kPa, Liquid
[4] = heat capacity at constant pressure per volume; xn = mol fraction of the nth substance listed; details: 298.15 K, 101.3 kPa, Liquid, Flow calorimetry

CCC(O)CC [3-pentanol]
Details | mass density [kg/m3] | molar heat capacity at constant pressure [J/K/mol]
[1] | 815.3 | –
[2] | – | 254.6

CCC(O)CC [3-pentanol] + O
Details | heat capacity, [4] [J/K/m3] | mass density, [3] [kg/m3]
x1 = 0.000803 | 4173700 | 996.49
x1 = 0.001033 | 4175300 | 996.33
x1 = 0.001252 | 4176900 | 996.18
x1 = 0.001864 | 4181400 | 995.77
x1 = 0.002399 | 4185100 | 995.4
x1 = 0.003282 | 4191500 | 994.83
x1 = 0.005357 | 4206400 | 993.51
x1 = 0.005689 | 4209600 | 993.32
x1 = 0.006773 | 4217300 | 992.61

CCCCO [butan-1-ol]
Details | mass density [kg/m3] | molar heat capacity at constant pressure [J/K/mol]
[1] | 805.62 | –
[2] | – | 177.1

CCCCO [butan-1-ol] + O
Details | heat capacity, [4] [J/K/m3] | mass density, [3] [kg/m3]
x1 = 0.001656 | 4176100 | 995.94
x1 = 0.003814 | 4186600 | 994.54
x1 = 0.005524 | 4195100 | 993.48
x1 = 0.006663 | 4200400 | 992.78
x1 = 0.009163 | 4213100 | 991.32
x1 = 0.01415 | 4239900 | 988.57
x1 = 0.01604 | 4251000 | 987.56

CCC(C)O (centres undefined) [butan-2-ol]
Details | mass density [kg/m3] | molar heat capacity at constant pressure [J/K/mol]
[1] | 802.07 | –
[2] | – | 197.8

CCC(C)O (centres undefined) [butan-2-ol] + O
Details | heat capacity, [4] [J/K/m3] | mass density, [3] [kg/m3]
x1 = 0.001648 | 4177000 | 995.99
x1 = 0.00244 | 4181300 | 995.46
x1 = 0.003665 | 4188100 | 994.69
x1 = 0.006146 | 4201900 | 993.17
x1 = 0.006234 | 4202800 | 993.15
x1 = 0.008153 | 4213300 | 991.98
x1 = 0.009049 | 4218100 | 991.43
x1 = 0.01047 | 4226800 | 990.68
x1 = 0.01411 | 4248500 | 988.8
x1 = 0.01461 | 4251800 | 988.51
x1 = 0.01766 | 4270000 | 987

CCCCCO [pentan-1-ol]
Details | mass density [kg/m3] | molar heat capacity at constant pressure [J/K/mol]
[1] | 810.68 | –
[2] | – | 208.8

CCCCCO [pentan-1-ol] + O
Details | heat capacity, [4] [J/K/m3] | mass density, [3] [kg/m3]
x1 = 0.001069 | 4174500 | 996.21
x1 = 0.001645 | 4177900 | 995.78
x1 = 0.001775 | 4178800 | 995.68
x1 = 0.001916 | 4179400 | 995.57
x1 = 0.002185 | 4181300 | 995.37
x1 = 0.002474 | 4182900 | 995.16
x1 = 0.002743 | 4184600 | 994.96
x1 = 0.003049 | 4186100 | 994.73
x1 = 0.003529 | 4189200 | 994.4

CCCC(C)O (centres undefined) [pentan-2-ol]
Details | mass density [kg/m3] | molar heat capacity at constant pressure [J/K/mol]
[1] | 804.55 | –
[2] | – | 235.3

CCCC(C)O (centres undefined) [pentan-2-ol] + O
Details | heat capacity, [4] [J/K/m3] | mass density, [3] [kg/m3]
x1 = 0.001235 | 4176700 | 996.1
x1 = 0.001831 | 4180800 | 995.66
x1 = 0.002163 | 4182900 | 995.4
x1 = 0.002785 | 4187300 | 994.95
x1 = 0.003519 | 4192400 | 994.4
x1 = 0.004937 | 4202200 | 993.42
x1 = 0.0059 | 4209100 | 992.73
x1 = 0.00695 | 4217100 | 992.05

CCCO [propan-1-ol]
Details | mass density [kg/m3] | molar heat capacity at constant pressure [J/K/mol]
[1] | 799.52 | –
[2] | – | 144.3

CCCO [propan-1-ol] + O
Details | heat capacity, [4] [J/K/m3] | mass density, [3] [kg/m3]
x1 = 0.000792 | 4170900 | 996.59
x1 = 0.002096 | 4175200 | 995.84
x1 = 0.002978 | 4178200 | 995.36
x1 = 0.006166 | 4189500 | 993.64
x1 = 0.008272 | 4197000 | 992.56
x1 = 0.01185 | 4209800 | 990.81
x1 = 0.01732 | 4230600 | 988.27
x1 = 0.02089 | 4243100 | 986.68

CC(C)O [propan-2-ol]
Details | mass density [kg/m3] | molar heat capacity at constant pressure [J/K/mol]
[1] | 780.72 | –
[2] | – | 155.2

CC(C)O [propan-2-ol] + O
Details | heat capacity, [4] [J/K/m3] | mass density, [3] [kg/m3]
x1 = 0.001072 | 4172300 | 996.38
x1 = 0.001923 | 4175600 | 995.85
x1 = 0.003078 | 4179900 | 995.16
x1 = 0.00413 | 4183900 | 994.53
x1 = 0.005976 | 4191200 | 993.44
x1 = 0.009312 | 4204200 | 991.51
x1 = 0.01437 | 4225200 | 988.91
x1 = 0.01665 | 4234700 | 987.73
